Source: ChEMBL document CHEMBL5724914, “Linking interpersonal differences in gut microbiota composition and drug biotransformation activity” (2024)

Columns and labels:
[1] = human gut metagenome, 24 h, 2 µM
[2] = The drug is tested on Z-026 corresponding to metagenome with ENA study accession number: PRJEB37062 and ENA sample accession number: ERS12561825 for biotransformation under anaerobic condition. The drug concentrations were measured over 9 timepoints collected between 0 and 24 hours of incubation by liquid-chromatography-coupled mass spectrometry (LC–MS); settings: 2 µM
[3] = human gut metagenome, 24 h, 2 µM; remark: listed apart in the source
[4] = The drug is tested on Z-008 corresponding to metagenome with ENA study accession number: PRJEB37062 and ENA sample accession number: ERS12561808 for biotransformation under anaerobic condition. The drug concentrations were measured over 9 timepoints collected between 0 and 24 hours of incubation by liquid-chromatography-coupled mass spectrometry (LC–MS); settings: 2 µM
[5] = The drug is tested on Z-028 corresponding to mouse gut metagenome with ENA study accession number: PRJEB37062 and ENA sample accession number: ERS12561827 for biotransformation under anaerobic condition. The drug concentrations were measured over 9 timepoints collected between 0 and 24 hours of incubation by liquid-chromatography-coupled mass spectrometry (LC–MS); settings: 2 µM
[6] = human gut metagenome, 24 h, 2 µM; remark: listed apart in the source
[7] = The drug is tested on Z-003 corresponding to pig gut metagenome with ENA study accession number: PRJEB37062 and ENA sample accession number: ERS12561803 for biotransformation under anaerobic condition. The drug concentrations were measured over 9 timepoints collected between 0 and 24 hours of incubation by liquid-chromatography-coupled mass spectrometry (LC–MS); settings: 2 µM
[8] = human gut metagenome, 24 h, 2 µM; remark: listed apart in the source
[9] = The drug is tested on WLS-006 corresponding to human gut metagenome with ENA study accession number: PRJEB37062 and ENA sample accession number: ERS12561741 for biotransformation under anaerobic condition. The drug concentrations were measured over 9 timepoints collected between 0 and 24 hours of incubation by liquid-chromatography-coupled mass spectrometry (LC–MS); settings: 2 µM
[10] = The drug is tested on Z-019 corresponding to rat gut metagenome with ENA study accession number: PRJEB37062 and ENA sample accession number: ERS12561818 for biotransformation under anaerobic condition. The drug concentrations were measured over 9 timepoints collected between 0 and 24 hours of incubation by liquid-chromatography-coupled mass spectrometry (LC–MS); settings: 2 µM
[11] = The drug is tested on WLS-086 corresponding to human gut metagenome with ENA study accession number: PRJEB37062 and ENA sample accession number: ERS12561752 for biotransformation under anaerobic condition. The drug concentrations were measured over 9 timepoints collected between 0 and 24 hours of incubation by liquid-chromatography-coupled mass spectrometry (LC–MS); settings: 2 µM
[12] = The drug is tested on Z-018 corresponding to pig gut metagenome with ENA study accession number: PRJEB37062 and ENA sample accession number: ERS12561817 for biotransformation under anaerobic condition. The drug concentrations were measured over 9 timepoints collected between 0 and 24 hours of incubation by liquid-chromatography-coupled mass spectrometry (LC–MS); settings: 2 µM
[13] = The drug is tested on Z-014 corresponding to rat gut metagenome with ENA study accession number: PRJEB37062 and ENA sample accession number: ERS12561814 for biotransformation under anaerobic condition. The drug concentrations were measured over 9 timepoints collected between 0 and 24 hours of incubation by liquid-chromatography-coupled mass spectrometry (LC–MS); settings: 2 µM
[14] = human gut metagenome, 24 h, 2 µM; remark: listed apart in the source
[15] = The drug is tested on Z-002 corresponding to rabbit gut metagenome with ENA study accession number: PRJEB37062 and ENA sample accession number: ERS12561802 for biotransformation under anaerobic condition. The drug concentrations were measured over 9 timepoints collected between 0 and 24 hours of incubation by liquid-chromatography-coupled mass spectrometry (LC–MS); settings: 2 µM
[16] = human gut metagenome, 24 h, 2 µM; remark: listed apart in the source
[17] = The drug is tested on WLS-220 corresponding to human gut metagenome with ENA study accession number: PRJEB37062 and ENA sample accession number: ERS12561769 for biotransformation under anaerobic condition. The drug concentrations were measured over 9 timepoints collected between 0 and 24 hours of incubation by liquid-chromatography-coupled mass spectrometry (LC–MS); settings: 2 µM
[18] = human gut metagenome, 24 h, 2 µM; remark: listed apart in the source
[19] = The drug is tested on Z-017 corresponding to mouse gut metagenome with ENA study accession number: PRJEB37062 and ENA sample accession number: ERS12561816 for biotransformation under anaerobic condition. The drug concentrations were measured over 9 timepoints collected between 0 and 24 hours of incubation by liquid-chromatography-coupled mass spectrometry (LC–MS); settings: 2 µM
[20] = human gut metagenome, 24 h, 2 µM; remark: listed apart in the source
Note: call rule not given here.

For `CC(C)(C)NC[C@H](O)COc1ccccc1C1CCCC1.CC(C)(C)NC[C@H](O)COc1ccccc1C1CCCC1.O=S(=O)(O)O` [PENBUTOLOL SULFATE], the “Bacterial Biotransformation” value [1] was “Compound metabolized”, the “Bacterial Biotransformation” value [2] was “Compound NOT metabolized” and the “Bacterial Biotransformation” value [3] was “Compound NOT metabolized”. The “Bacterial Biotransformation” value [4] was “Compound NOT metabolized”, the “Bacterial Biotransformation” value [5] was “Compound NOT metabolized” and the “Bacterial Biotransformation” value [6] was “Compound metabolized”. The “Bacterial Biotransformation” value [7] was “Compound metabolized”, the “Bacterial Biotransformation” value [8] was “Compound metabolized” and the “Bacterial Biotransformation” value [9] was “Compound metabolized”. For the same compound, the “Bacterial Biotransformation” value [10] was “Compound NOT metabolized”, the “Bacterial Biotransformation” value [11] was “Compound metabolized” and the “Bacterial Biotransformation” value [12] was “Compound metabolized”. The “Bacterial Biotransformation” value [13] was “Compound NOT metabolized”, the “Bacterial Biotransformation” value [14] was “Compound metabolized” and the “Bacterial Biotransformation” value [15] was “Compound metabolized”. For the same compound, the “Bacterial Biotransformation” value [16] was “Compound metabolized”, the “Bacterial Biotransformation” value [17] was “Compound metabolized” and the “Bacterial Biotransformation” value [18] was “Compound metabolized”. For the same compound, the “Bacterial Biotransformation” value [19] was “Compound NOT metabolized” and the “Bacterial Biotransformation” value [20] was “Compound metabolized”.

In the case of `CCOc1ccc(NC(C)=O)cc1` [PHENACETIN], the “Bacterial Biotransformation” value [1] is reported as “Compound NOT metabolized”, the “Bacterial Biotransformation” value [2] is reported as “Compound NOT metabolized” and the “Bacterial Biotransformation” value [3] is reported as “Compound NOT metabolized”. For the same compound, the “Bacterial Biotransformation” value [4] was “Compound NOT metabolized”, the “Bacterial Biotransformation” value [5] was “Compound NOT metabolized” and the “Bacterial Biotransformation” value [6] was “Compound NOT metabolized”. The “Bacterial Biotransformation” value [7] was “Compound NOT metabolized”, the “Bacterial Biotransformation” value [8] was “Compound NOT metabolized” and the “Bacterial Biotransformation” value [9] was “Compound NOT metabolized”. For the same compound, the “Bacterial Biotransformation” value [10] was “Compound NOT metabolized”, the “Bacterial Biotransformation” value [11] was “Compound NOT metabolized” and the “Bacterial Biotransformation” value [12] was “Compound NOT metabolized”. For the same compound, the “Bacterial Biotransformation” value [13] was “Compound NOT metabolized”, the “Bacterial Biotransformation” value [14] was “Compound NOT metabolized” and the “Bacterial Biotransformation” value [15] was “Compound NOT metabolized”. The “Bacterial Biotransformation” value [16] was “Compound NOT metabolized”, the “Bacterial Biotransformation” value [17] was “Compound NOT metabolized” and the “Bacterial Biotransformation” value [18] was “Compound NOT metabolized”. The “Bacterial Biotransformation” value [19] was “Compound NOT metabolized” and the “Bacterial Biotransformation” value [20] was “Compound NOT metabolized”.

For `Nc1ccc(/N=N/c2ccccc2)c(N)n1` [PHENAZOPYRIDINE], the “Bacterial Biotransformation” value [1] was “Compound metabolized”, the “Bacterial Biotransformation” value [2] was “Compound metabolized” and the “Bacterial Biotransformation” value [3] was “Compound metabolized”. The “Bacterial Biotransformation” value [4] was “Compound metabolized”, the “Bacterial Biotransformation” value [5] was “Compound metabolized” and the “Bacterial Biotransformation” value [6] was “Compound metabolized”. The “Bacterial Biotransformation” value [7] was “Compound metabolized”, the “Bacterial Biotransformation” value [8] was “Compound metabolized” and the “Bacterial Biotransformation” value [9] was “Compound metabolized”. For the same compound, the “Bacterial Biotransformation” value [10] was “Compound metabolized”, the “Bacterial Biotransformation” value [11] was “Compound metabolized” and the “Bacterial Biotransformation” value [12] was “Compound metabolized”. The “Bacterial Biotransformation” value [13] was “Compound metabolized”, the “Bacterial Biotransformation” value [14] was “Compound metabolized” and the “Bacterial Biotransformation” value [15] was “Compound metabolized”. The “Bacterial Biotransformation” value [16] was “Compound metabolized”, the “Bacterial Biotransformation” value [17] was “Compound metabolized” and the “Bacterial Biotransformation” value [18] was “Compound metabolized”. The “Bacterial Biotransformation” value [19] was “Compound metabolized” and the “Bacterial Biotransformation” value [20] was “Compound metabolized”.

For `CC(C(=O)O)c1ccc2c(c1)Cc1cccnc1O2` (stereo not given) [PRANOPROFEN], the “Bacterial Biotransformation” value [1] was “Compound metabolized”, the “Bacterial Biotransformation” value [2] was “Compound NOT metabolized” and the “Bacterial Biotransformation” value [3] was “Compound metabolized”. The “Bacterial Biotransformation” value [4] was “Compound metabolized”, the “Bacterial Biotransformation” value [5] was “Compound metabolized” and the “Bacterial Biotransformation” value [6] was “Compound metabolized”. For the same compound, the “Bacterial Biotransformation” value [7] was “Compound metabolized”, the “Bacterial Biotransformation” value [8] was “Compound metabolized” and the “Bacterial Biotransformation” value [9] was “Compound metabolized”. For the same compound, the “Bacterial Biotransformation” value [10] was “Compound NOT metabolized”, the “Bacterial Biotransformation” value [11] was “Compound metabolized” and the “Bacterial Biotransformation” value [12] was “Compound metabolized”. The “Bacterial Biotransformation” value [13] was “Compound NOT metabolized”, the “Bacterial Biotransformation” value [14] was “Compound metabolized” and the “Bacterial Biotransformation” value [15] was “Compound metabolized”. For the same compound, the “Bacterial Biotransformation” value [16] was “Compound metabolized”, the “Bacterial Biotransformation” value [17] was “Compound metabolized” and the “Bacterial Biotransformation” value [18] was “Compound metabolized”. The “Bacterial Biotransformation” value [19] was “Compound NOT metabolized” and the “Bacterial Biotransformation” value [20] was “Compound metabolized”.

For `CCc1nc(N)nc(N)c1-c1ccc(Cl)cc1` [PYRIMETHAMINE], the “Bacterial Biotransformation” value [1] was “Compound NOT metabolized”, the “Bacterial Biotransformation” value [2] was “Compound NOT metabolized” and the “Bacterial Biotransformation” value [3] was “Compound NOT metabolized”. The “Bacterial Biotransformation” value [4] was “Compound NOT metabolized”, the “Bacterial Biotransformation” value [5] was “Compound NOT metabolized” and the “Bacterial Biotransformation” value [6] was “Compound NOT metabolized”. For the same compound, the “Bacterial Biotransformation” value [7] was “Compound NOT metabolized”, the “Bacterial Biotransformation” value [8] was “Compound metabolized” and the “Bacterial Biotransformation” value [9] was “Compound NOT metabolized”. The “Bacterial Biotransformation” value [10] was “Compound NOT metabolized”, the “Bacterial Biotransformation” value [11] was “Compound metabolized” and the “Bacterial Biotransformation” value [12] was “Compound NOT metabolized”. For the same compound, the “Bacterial Biotransformation” value [13] was “Compound NOT metabolized”, the “Bacterial Biotransformation” value [14] was “Compound NOT metabolized” and the “Bacterial Biotransformation” value [15] was “Compound metabolized”. The “Bacterial Biotransformation” value [16] was “Compound NOT metabolized”, the “Bacterial Biotransformation” value [17] was “Compound NOT metabolized” and the “Bacterial Biotransformation” value [18] was “Compound NOT metabolized”. For the same compound, the “Bacterial Biotransformation” value [19] was “Compound NOT metabolized” and the “Bacterial Biotransformation” value [20] was “Compound metabolized”.

For `COc1ccccc1OCC(O)CN1CCN(CC(=O)Nc2c(C)cccc2C)CC1` (stereo not given) [RANOLAZINE], the “Bacterial Biotransformation” value [1] was “Compound NOT metabolized”, the “Bacterial Biotransformation” value [2] was “Compound NOT metabolized” and the “Bacterial Biotransformation” value [3] was “Compound NOT metabolized”. The “Bacterial Biotransformation” value [4] was “Compound NOT metabolized”, the “Bacterial Biotransformation” value [5] was “Compound NOT metabolized” and the “Bacterial Biotransformation” value [6] was “Compound NOT metabolized”. For the same compound, the “Bacterial Biotransformation” value [7] was “Compound metabolized”, the “Bacterial Biotransformation” value [8] was “Compound NOT metabolized” and the “Bacterial Biotransformation” value [9] was “Compound NOT metabolized”. The “Bacterial Biotransformation” value [10] was “Compound NOT metabolized”, the “Bacterial Biotransformation” value [11] was “Compound metabolized” and the “Bacterial Biotransformation” value [12] was “Compound NOT metabolized”. The “Bacterial Biotransformation” value [13] was “Compound NOT metabolized”, the “Bacterial Biotransformation” value [14] was “Compound NOT metabolized” and the “Bacterial Biotransformation” value [15] was “Compound metabolized”. The “Bacterial Biotransformation” value [16] was “Compound NOT metabolized”, the “Bacterial Biotransformation” value [17] was “Compound NOT metabolized” and the “Bacterial Biotransformation” value [18] was “Compound NOT metabolized”. For the same compound, the “Bacterial Biotransformation” value [19] was “Compound NOT metabolized” and the “Bacterial Biotransformation” value [20] was “Compound NOT metabolized”.
